Source: PMC7822874, “Chemoprotective antimalarials identified through quantitative high-throughput screening of Plasmodium blood and liver stage parasites” (Scientific Reports, 2021)
Where two headings read alike, the source gives them in different places.

Assays:
[1] = test system: P. falciparum Dd2 (clone B2) asexual blood stage parasites; test: P. falciparum Dd2 asexual blood stage SYBR Green-I 72 h proliferation assay (qHTS); format: cell-based, Plasmodium falciparum; details: averaged P. falciparum asexual blood stage potency, log10 of AC50 in M
[2] = test system: P. berghei-ANKA-GFP-LucCON liver stage parasites in HepG2-A16-CD81EGFP cells; test: P. berghei liver stage Pb-Luc assay, Method 1 (UCSD, 1536-well); format: cell-based, Plasmodium berghei; details: P. berghei liver stage, averaged response (percent); for Average P. berghei 1 µM response (%): the header list (r8) defines it as the 1 µM dose
HepG2-A16-CD81EGFP cells = details: averaged response (percent)
in vitro = details: human, hepg2-a16-cd81egfp cells, % viability
[3] = HepG2, the header list (r10) describes it as the 1 µM dose

Structure (SMILES) | Pf ABS Log AC50 (M) [1] | Average P. berghei 3 µM response( %) [2] | Average P. berghei 1 µM response (%) [2] | Average HepG2 3 µM response( %) (HepG2-A16-CD81EGFP cells; HepG2, 3 µM dose) | Average HepG2 3 µM response( %) (HepG2-A16-CD81EGFP cells; [3]) | viability at 3 µM (in vitro)
Cc1cc(N2CCN(C3CCCC3)CC2)n2c(nc3ccccc32)c1C#N [MLS000039270] | -6.262 M | 94% | 106% | 90% | 89% | 89.8%
Cl.Oc1ccc(C2NCc3ccccc3-n3cccc32)cc1Cl (stereo not shown) [MLS000047999] | -5.962 M | 90% | 101% | 94% | 100% | 94%
N=c1c2c(n(Cc3ccc(F)cc3)c3c1CCC3)CCC2 [MLS000107591] | -5.862 M | 16% | 68% | 78% | 100% | 77.7%
Cc1cc(Oc2c(C(F)(F)F)oc3c(CN4CCC(C)CC4)c(O)ccc3c2=O)cc(C)c1Cl [NCGC00101140] | -6.125 M | 71% | 85% | 111% | 110% | 
CCN(CC)CCn1c(=N)n(CC(O)COc2ccccc2C)c2ccccc21 (stereo not shown) [NCGC00101835] | -5.475 M | 72% | 117% | 100% | 104% | 
Cc1ccc(NC(=O)CCS(=O)(=O)c2cc(Br)cc3c2N(C(=O)C2CC2)CC3)cc1 [NCGC00107230] | -5.625 M | 118% | 117% | 102% | 99% | 
CCN1CCN(C(=O)c2ccc3c(c2)N(Cc2c(F)cccc2Cl)C(=O)c2ccccc2S3)CC1 [NCGC00108184] | -8.075 M | 76% | 94% | 107% | 105% | 
CCCN(CCC)CCNC(=O)c1cc2c(-c3ccc(Cl)cc3)nn(C)c2s1 [NCGC00108997] | -6.212 M | 49% | 57% | 98% | 102% | 
CCN1CCN(C(=O)c2ccc3c(c2)N(Cc2ccccc2F)C(=O)c2ccccc2[S+]3[O-])CC1 (stereo not shown) [NCGC00109528] | -6.075 M | 103% | 106% | 98% | 98% | 
Cc1ccc2oc(=O)c3cnn(CC(=O)Nc4cccc(C(F)(F)F)c4)c3c2c1 [NCGC00110933] | -5.575 M | 101% | 114% | 98% | 97% | 
CCOCCCNc1nc2cc(OC)c(OC)cc2c2nc(-c3ccccc3)nn12 [NCGC00112857] | -6.675 M | 104% | 109% | 99% | 97% | 
O=c1cc(-c2ccccc2)c2ccc3c(c2o1)CN(Cc1ccccc1)CO3 [NCGC00116340] | -5.575 M | 76% | 87% | 100% | 102% | 
CC(C)OCCCNc1sc([S+](=O)([O-])c2ccccc2)nc1[S+](=O)([O-])c1ccc(Cl)cc1 [NCGC00116822] | -6.575 M | 76% | 75% | 94% | 93% | 
Cc1cc(Nc2cccc(C(F)(F)F)c2)nc2ccc(NC(=O)c3cncc(Br)c3)cc12 [NCGC00124348] | -5.625 M | 38% | 76% | 101% | 107% | 
Cc1ccccc1NC(=O)Nc1ccc2nc(N3CCN(C)CC3)cc(C)c2c1 [NCGC00126513] | -5.825 M | 104% | 110% | 106% | 104% | 
CCN(C(=O)CSc1nc(-c2ccc(C(C)C)cc2)no1)c1ccccc1 [NCGC00127904] | -6.025 M | 98% | 117% | 105% | 102% | 

Structure (SMILES) | Pf ABS Log AC50 (M) [1] | Average P. berghei 3 µM response( %) [2] | Average P. berghei 1 µM response (%) [2] | Average HepG2 3 µM response( %) (HepG2-A16-CD81EGFP cells; HepG2, 3 µM dose) | Average HepG2 3 µM response( %) (HepG2-A16-CD81EGFP cells; [3]) | viability at 3 µM (in vitro)
CC1CCN(C(=O)CSc2nc(-c3ccc(C(C)C)cc3)no2)CC1 [NCGC00127906] | -5.925 M | 103% | 130% | 105% | 105% | 
CCc1cccc(-n2c(=O)c3cccnc3n2CC(=O)Nc2ccc(F)c(C)c2)c1 [NCGC00128424] | -5.575 M | 91% | 110% | 103% | 107% | 
COc1ccc(-c2nc3sc(CCNC(=O)c4ccc(C(C)(C)C)cc4)c(C)n3n2)cc1 [NCGC00137079] | -5.675 M | 84% | 132% | 98% | 98% | 
Cc1ccc(O)c([C@H](CCN(C(C)C)C(C)C)c2ccccc2)c1 [NCGC00159519] | -5.437 M | 83% | 97% | 104% | 100% | 
CC(C)C(=O)OCC(=O)[C@@]12O[C@H](C3CCCCC3)O[C@@H]1C[C@H]1[C@@H]3CCC4=CC(=O)C=C[C@]4(C)[C@H]3[C@@H](O)C[C@@]12C [NCGC00167484] | -5.762 M | 125% | 137% | 92% | 94% | 
O=C(O)c1ccc(-c2nc3cnccc3[nH]2)cc1 [NCGC00375713] | -5.264 M | 94% | 106% | 104% | 105% | 
O=C1NCc2ccccc2CC12CCCN(Cc1ccccc1)C2 (stereo not shown) [NCGC00377595] | -4.980 M | 106% | 116% | 104% | 103% | 
COc1ccc2[nH]c(C[C@@H]3C[C@@H](C(C)C)[C@H](CNCc4ccccc4OC)C=C3C)nc2c1 [NCGC00392082] | -5.025 M | 47% | 75% | 97% | 99% | 
CCC(CC)c1cc([C@H]2CN3CC[C@H]2C[C@@H]3CNC(C)=O)nc(-c2ccncc2)n1 [NCGC00394634] | -4.814 M | 53% | 49% | 106% | 107% | 
Cn1ccc(NCc2nnc(C(=O)N3CCC[C@@H]3C(c3ccccc3)c3ccccc3)n2-c2ccccc2)n1 [NCGC00415774] | -5.875 M | 89% | 95% | 99% | 96% | 
COc1cc2c(cc1Oc1cccc(N(C)C)c1)NC(=O)C21CCN(c2cnccn2)CC1 [NCGC00416778] | -5.825 M | 43% | 96% | 89% | 98% | 
Cc1nn2c(c1-c1ccccc1-c1ccccc1)N(Cc1ccc(O)cc1)CCC2 [NCGC00420512] | -6.314 M | 24% | 80% | 111% | 98% | 
COc1ccc(N2CCN(c3cc(C4CC(N)C4)nc(N)n3)CC2(C)C)cc1 (stereo not shown) [NCGC00422579] | -5.525 M | 82% | 91% | 100% | 102% | 
COc1ccc(-c2noc(-c3cccn3CC(=O)Nc3ccccc3)n2)cc1F [NCGC00445500] | -5.625 M | 183% | 170% | 104% | 101% | 
O=C1CC(c2ccccc2)N(Cc2ccncc2)CCCN(C(=O)Nc2ccccc2F)CCN1 (stereo not shown) [NCGC00467191] | -5.775 M | 73% | 88% | 103% | 107% | 
CCOc1ccccc1CN1CCC2(CCN(CCC(C)C)CC2)Oc2ccccc21 [NCGC00478188] | -5.475 M | 48% | 106% | 105% | 100% | 
